Among the data in patent publication US7459450B2, “Neuropeptide receptor modulators” (Schering Corporation, priority 2004, dated 2008) are Ki values, retold here.

One assay deals with T1, Human NPY Y1 receptors (Homo sapiens, UniProt P25929).
T1 construct: expressed in transfected cells; host or cells: CHO cells (membrane protein)
T1 sequence (P25929 1-384): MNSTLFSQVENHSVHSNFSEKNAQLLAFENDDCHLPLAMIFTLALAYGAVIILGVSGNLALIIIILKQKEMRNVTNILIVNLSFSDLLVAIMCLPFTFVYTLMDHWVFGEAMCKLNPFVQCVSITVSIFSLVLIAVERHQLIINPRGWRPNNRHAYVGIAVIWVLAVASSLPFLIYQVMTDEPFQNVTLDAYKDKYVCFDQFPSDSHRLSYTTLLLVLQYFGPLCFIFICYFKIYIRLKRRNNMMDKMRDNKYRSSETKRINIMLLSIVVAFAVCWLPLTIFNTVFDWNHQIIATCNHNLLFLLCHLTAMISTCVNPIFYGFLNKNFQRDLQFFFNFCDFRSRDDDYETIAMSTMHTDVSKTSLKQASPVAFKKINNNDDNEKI
The assay is described as follows: NPY Receptor Binding Assay.
Details: not given
As for the experimental part:
NPY Receptor Binding Assay
Human NPY Y1 receptors were expressed in CHO cells. Binding assays were performed in 50 mM HEPES, pH 7.2, 2.5 mM CaCl2, 1 mM MgCl2 and 0.1% BSA containing 5-10 μg of membrane protein and 0.1 nM […] in a total volume of 200 μl. Non-specific binding was determined in the presence of 1 μM NPY. The reaction mixtures were incubated for 90 minutes at room temperature then filtered through Millipore MAFC glass fiber filter plates which had been pre-soaked in 0.5% polyethleneimine. The filters were washed with phosphate-buffered saline, and radioactivity was measured in a Packard TopCount scintillation counter.
One may read the Ki as a dissociation constant, usually derived from enzyme kinetics or from competition with a known ligand. High values mean a looser hold on the target, low ones a stronger hold on the target. For the compound `O=C1CN/C(=N\c2ccccc2CCNc2nc3ccccc3s2)S1` [Example 412], the Ki is more than 10 µM. `CC(C)[C@@H]1N/C(=N/c2ccc(CCNc3nc4ccc([N+](=O)[O-])cc4s3)cc2)SC1=O` [Example 356] showed an inhibition constant Ki of more than 10 µM. On the same count and under the same terms, for `CC(C)C[C@@H]1N/C(=N/c2ccc(CCNc3nc4ccc(Cl)cc4s3)cc2)SC1=O` [Example 383] the value was more than 10 µM. `CC(C)C[C@@H]1N/C(=N\c2ccccc2CCNc2nc3ccccc3s2)SC1=O` [Example 411] came in with an inhibitory constant (Ki) of more than 10 µM. Consider `CC(C)C[C@@H]1N/C(=N/c2ccc(CCNc3nc4ccc(S(C)(=O)=O)cc4s3)cc2)SC1=O` [Example 389], for which the Ki was more than 10 µM. On the same count and under the same terms, to `Cc1ccc2nc(NCCc3ccc(/N=C4/N[C@@H](CC(C)C)C(=O)S4)cc3)sc2c1` [Example 351] belongs more than 10 µM; to `Cc1cccc2sc(NCCc3ccc(/N=C4/N[C@@H](Cc5ccccc5)C(=O)S4)cc3)nc12` [Example 369], more than 10 µM; to `O=C1S/C(=N\c2ccc(CCNc3nc4ccccc4s3)cc2)N[C@H]1Cc1ccccc1` [Example 394], more than 10 µM.

In turn, `O=C(O)C[C@@H]1N/C(=N/c2ccc(CCNc3nc4ccccc4s3)cc2)SC1=O` [Example 399] showed an inhibitory constant (Ki) of more than 10 µM. Still for that read-out and setting: to `O=C1S/C(=N\c2ccc(CCNc3nc4cc(Cl)c(Cl)cc4s3)cc2)N[C@H]1Cc1ccccc1` [Example 360] belongs more than 10 µM; to `C[C@@H]1N/C(=N/c2ccc(CCNc3nc4ccc(Cl)cc4s3)cc2)SC1=O` [Example 386], more than 10 µM. In turn, `O=C1S/C(=N\c2ccc(CCNc3nc4ccc(F)cc4s3)cc2)N2CCC[C@@H]12` [Example 375] registered a Ki of more than 10 µM. The same measure, in the same setting: to `CC(C)[C@@H]1N/C(=N/c2ccc(CCNc3nc4ccc(F)cc4s3)cc2)SC1=O` [Example 374] belongs more than 10 µM; to `COc1ccc2nc(NCCc3ccc(/N=C4/N[C@@H](C(C)C)C(=O)S4)cc3)sc2c1` [Example 346], more than 10 µM.

The same assay, now with this note: Procedure A compounds, rated A/B/C.
Consider `Cc1cccc2sc(NCCc3ccc(NC4=NCCS4)cc3)nc12` [Example 23], for which the Ki was in the range of 1 to 10 µM. On the same count and under the same terms, to `COc1ccc2nc(NCCc3ccc(NC4=NCCS4)cc3)sc2c1` [Example 16] belongs 1 to 10 µM; to `c1ccc(NC2=NCCS2)c(CCNc2nc3ccccc3s2)c1` [Example 24], more than 10 µM; to `c1cc(CCNc2nc3ccccc3s2)cc(NC2=NCCS2)c1` [Example 25], more than 10 µM. Still for that read-out and setting: to `O=[N+]([O-])c1ccc2nc(NCCc3ccc(NC4=NCCS4)cc3)sc2c1` [Example 18] belongs 1 to 10 µM; to `Fc1ccc2nc(NCCc3ccc(NC4=NCCS4)cc3)sc2c1` [Example 21], 1 to 10 µM.

The assay is the same for the next values; noted with them: Procedure B compounds, rated A/B/C.
In turn, `CCOC(=O)N1CC(c2ccccc2)N=C1Nc1ccc(CCNc2nc3ccccc3s2)cc1` (centres unmarked) [Example 27] registered a Ki of more than 10 µM. The same measure, in the same setting: for `CCC1CN(C(=O)c2ccccc2)C(Nc2ccc(CCNc3nc4ccccc4s3)cc2)=N1` (centres unmarked) [Example 33] the value was more than 10 µM; for `O=C(c1ccccc1)N1CC2(CCCC2)N=C1Nc1ccc(CCNc2nc3ccccc3s2)cc1` [Example 32], more than 10 µM; for `CCOC(=O)N1CCN=C1Nc1ccc(CCNc2nc3ccccc3s2)cc1` [Example 26], more than 10 µM.

Staying with this assay, now noted: Procedure C compounds, rated A/B/C.
`CC[C@H](C)[C@@H]1N=C(Nc2ccc(CCNc3nc4ccccc4s3)cc2)N(C(=O)c2ccccc2)C1=O` [Example 52] yielded an inhibitory constant (Ki) of more than 10 µM. On the same count and under the same terms, for `O=C(c1ccccc1)N1C(=O)[C@H](CC2CCCCC2)N=C1Nc1ccc(CCNc2nc3ccccc3s2)cc1` [Example 50] the value was more than 10 µM.

The assay is the same for the next values; noted with them: Procedure E compounds, rated A/B/C.
As to `Cc1ccc2nc(NCCc3ccc(/N=C4\SC[C@@H]5CCCN45)cc3)sc2c1` [Example 89], the Ki was more than 10 µM. Same read-out and setting: for `Fc1ccc2nc(NCCc3ccc(/N=C4/NCCCS4)cc3)sc2c1` [Example 211] the value was less than 1 µM. Same read-out and setting: for `Cc1cccc2sc(NCCc3ccc(/N=C4/NCCCS4)cc3)nc12` [Example 209] the value was more than 10 µM. Still for that read-out and setting: to `Cc1cccc2sc(NCCc3ccc(/N=C4/NCC(c5ccccc5)S4)cc3)nc12` (centres unmarked) [Example 188] belongs more than 10 µM; to `Fc1ccc2nc(NCCc3ccc(/N=C4/N[C@H]5c6ccccc6CC5S4)cc3)sc2c1` (some centres unmarked) [Example 328], less than 1 µM. In turn, `CC[C@@H]1CS/C(=N\c2ccc(CCNc3nc4ccc(F)cc4s3)cc2)N1` [Example 167] yielded a Ki of less than 1 µM.

With `Fc1ccc2nc(NCCc3ccc(/N=C4/NCC(c5ccccc5)S4)cc3)sc2c1` (centres unmarked) [Example 329], the Ki was more than 10 µM. On the same count and under the same terms, to `CCCC1CS/C(=N\c2ccc(CCNc3nc4ccccc4s3)cc2)N1` (centres unmarked) [Example 264] belongs less than 1 µM; to `CCC1CS/C(=N\c2ccc(CCNc3nc4ccc(Cl)cc4s3)cc2)N1` (centres unmarked) [Example 103], 1 to 10 µM. Still for that read-out and setting: for `CC1CN/C(=N/c2ccc(CCNc3nc4ccc(F)cc4s3)cc2)S1` (centres unmarked) [Example 330] the value was more than 10 µM; for `COc1cccc2sc(NCCc3ccc(/N=C4\SC5Cc6ccccc6[C@@H]5N4C4CC4)cc3)nc12` (some centres unmarked) [Example 229], more than 10 µM; for `c1ccc2sc(NCCc3ccc(/N=C4/N[C@@H](Cc5c[nH]cn5)CS4)cc3)nc2c1` [Example 270], less than 1 µM.

In turn, `c1ccc([C@@H]2CSC(Nc3ccc(CCNc4nc5ccccc5s4)cc3)=N2)cc1` [Example 196] showed a Ki of less than 1 µM. Same read-out and setting: to `C[C@@H]1CS/C(=N\c2ccc(CCNc3nc4ccc(S(C)(=O)=O)cc4s3)cc2)N1` [Example 114] belongs 1 to 10 µM. On the same count and under the same terms, to `Clc1ccc2nc(NCCc3ccc(NC4=NCCCS4)cc3)sc2c1` [Example 213] belongs less than 1 µM; to `COc1cccc2sc(NCCc3ccc(/N=C4/NCC(C)S4)cc3)nc12` (centres unmarked) [Example 326], more than 10 µM. Same read-out and setting: for `COc1ccc2nc(NCCc3ccc(/N=C4/N[C@@H](C(C)C)CS4)cc3)sc2c1` [Example 216] the value was 1 to 10 µM; for `Brc1ccc(C2CCSC(Nc3ccc(CCNc4nc5ccccc5s4)cc3)=N2)cc1` (centres unmarked) [Example 335], less than 1 µM. For `CCCC1CS/C(=N\c2ccc(CCNc3nc4ccc(OC)cc4s3)cc2)N1` (centres unmarked) [Example 214], the Ki was less than 1 µM. In turn, `COc1ccc2nc(NCCc3ccc(/N=C4/NC(C)(C)CS4)cc3)sc2c1` [Example 221] had an inhibitory constant (Ki) of 1 to 10 µM. Regarding `CC1CN/C(=N/c2ccc(CCNc3nc4ccc(S(C)(=O)=O)cc4s3)cc2)S1` (centres unmarked) [Example 189], the inhibitory constant (Ki) is more than 10 µM. The compound `Cc1ccc2nc(NCCc3ccc(/N=C4/N[C@@H](C(C)C)CS4)cc3)sc2c1` [Example 93] displayed a Ki of 1 to 10 µM. On the same count and under the same terms, for `CS(=O)(=O)c1ccc2nc(NCCc3ccc(/N=C4/NC5(CCCC5)CS4)cc3)sc2c1` [Example 117] the value was 1 to 10 µM; for `c1ccc(CCC2CCSC(Nc3ccc(CCNc4nc5ccccc5s4)cc3)=N2)cc1` (centres unmarked) [Example 197], less than 1 µM; for `COc1ccc2nc(NCCc3ccc(/N=C4/N[C@H](C)CS4)cc3)sc2c1` [Example 218], 1 to 10 µM.

Compound `CS(=O)(=O)c1ccc2nc(NCCc3ccc(/N=C4/N[C@H]5c6ccccc6CC5S4)cc3)sc2c1` (some centres unmarked) [Example 332] showed an inhibition constant Ki of more than 10 µM.

As for `CC[C@@H]1CS/C(=N\c2ccc(CCNc3nc4ccc(C)cc4s3)cc2)N1` [Example 96], the Ki was less than 1 µM. The same measure, in the same setting: to `CN1CCS/C1=N/c1cccc(CCNc2nc3ccccc3s2)c1` [Example 182] belongs more than 10 µM. The same measure, in the same setting: to `Cc1ccc2nc(NCCc3ccc(/N=C4/NCC(C)S4)cc3)sc2c1` (centres unmarked) [Example 324] belongs more than 10 µM. Same read-out and setting: for `c1ccc2sc(NCCc3ccc(N=C4NCCCS4)cc3)nc2c1` [Example 202] the value was less than 1 µM. In the case of `Clc1cccc(C2CCSC(Nc3ccc(CCNc4nc5ccccc5s4)cc3)=N2)c1` (centres unmarked) [Example 198], the Ki is less than 1 µM.

In turn, `CC1(C)CS/C(=N\c2ccc(CCNc3nc4ccc([N+](=O)[O-])cc4s3)cc2)N1` [Example 76] had an inhibition constant Ki of more than 10 µM.

`Cc1ccc2nc(NCCc3ccc(/N=C4/N[C@H](CC(C)C)CS4)cc3)sc2c1` [Example 88] displayed an inhibition constant Ki of less than 1 µM. Same read-out and setting: for `Fc1ccc2nc(NCCc3ccc(/N=C4/NC(c5ccccc5)CCS4)cc3)sc2c1` (centres unmarked) [Example 210] the value was less than 1 µM. Same read-out and setting: to `CC1CN/C(=N/c2ccc(CCNc3nc4ccc(Cl)cc4s3)cc2)S1` (centres unmarked) [Example 331] belongs more than 10 µM; to `Cc1ccc2nc(NCCc3ccc(/N=C4/NC5(CCCC5)CS4)cc3)sc2c1` [Example 226], 1 to 10 µM.

The assay is the same for the next values; noted with them: Procedure G compounds, rated A/B/C.
`COc1ccc(-c2csc(Nc3ccc(CCNc4nc5ccccc5s4)cc3)n2)c(OC)c1` [Example 426] showed a Ki of more than 10 µM. On the same count and under the same terms, for `COC(=O)Cc1csc(Nc2ccc(CCNc3nc4ccccc4s3)cc2)n1` [Example 431] the value was more than 10 µM; for `c1ccc2sc(NCCc3ccc(Nc4nccs4)cc3)nc2c1` [Example 416], more than 10 µM.

The assay is the same for the next values; noted with them: Procedure H compounds, rated A/B/C.
Turning to `CCC1SC(Nc2ccc(CCNc3nc4ccccc4s3)cc2)=NC1=O` (centres unmarked) [Example 443], the inhibition constant Ki is more than 10 µM. On the same count and under the same terms, for `CCCCCC1SC(Nc2ccc(CCNc3nc4ccccc4s3)cc2)=NC1=O` (centres unmarked) [Example 447] the value was more than 10 µM.

Still in this assay, the particulars now being: Table 1, rated A/B/C.
In turn, `c1ccc([C@@H]2CSC(Nc3ccc(CCNc4nc5ccccc5s4)cc3)=N2)cc1` [Example 7] returned a Ki of less than 1 µM.
